The values that follow come from patent US20170035793A1, “Use of P2X Purinergic Receptor Agonists to Enhance Insulin Secretion In Pancreatic Beta Cells” (priority 2010, published 2017).

The test system of assay [1] is human islets. The experiment in a line: Glucagon secretion from perifused human islets. In kind it is cell-based. The text has this:
(§1) Islet Isolation. Islets were isolated as previously described (57). Monkey islets were isolated from cynomolgus monkeys (Macacca fascicularis) >4 years of age at the time of pancreas procurement, as previously described (58). Pig pancreata were procured from the local slaughterhouse. Mice (C57BL/6) and rat (Lewis rat; Harlan) islets were isolated using a rodent-islet isolation technique (59). All animal protocols were approved by the University of Miami Care and Use Committee. Human pancreatic islets were obtained from the Human Islet Cell Processing Facility at the Diabetes Research Institute, University of Miami Miller School of Medicine or from the Islet Cell Resource basic science islet distribution program, Islet Cell Resource Centers (ICRs) Consortium, Division of Clinical Research, National Center for Research Resources, National Institutes of Health. Human islets were dissociated into single cells using enzyme-free cell dissociation buffer (Invitrogen). […]
(§2) Insulin and Glucagon Secretion. Insulin and glucagon secretion were measured as previously described (8, 36). […] Hormone release in the perifusate was determined with the human or mouse Endocrine LINCOplex Kit following manufacturer's instructions (Lincoresearch). […]

In a further assay the test system is rat islets. The experiment in a line: Insulin secretion from perifused rat islets. In kind it is cell-based, rat (Lewis rat). As to conditions: 1-1,000 μM.
From the text: as §1, §2

The test system of another assay is mouse islets. The assay can be described thus: Glucagon secretion from perifused mouse islets. In kind it is cell-based, Mice (C57BL/6).
From the text: as §1, §2

Assay [2] concerns monkey islets. The experiment in a line: Glucagon secretion from perifused monkey islets. Type of assay: cell-based, cynomolgus monkeys (Macacca fascicularis).
From the text: as §1, §2

For the next assay, the system named is human β cells. The assay can be described thus: [Ca2+]i imaging (Fura-2) of glucose-responsive human islet cells. Type of assay: cell-based. As to conditions: ATPγS 50 μM. The text has this:
(§3) Islet Isolation. Islets were isolated as previously described (57). Monkey islets were isolated from cynomolgus monkeys (Macacca fascicularis) >4 years of age at the time of pancreas procurement, as previously described (58). Pig pancreata were procured from the local slaughterhouse. Mice (C57BL/6) and rat (Lewis rat; Harlan) islets were isolated using a rodent-islet isolation technique (59). All animal protocols were approved by the University of Miami Care and Use Committee. Human pancreatic islets were obtained from the Human Islet Cell Processing Facility at the Diabetes Research Institute, University of Miami Miller School of Medicine or from the Islet Cell Resource basic science islet distribution program, Islet Cell Resource Centers (ICRs) Consortium, Division of Clinical Research, National Center for Research Resources, National Institutes of Health. Human islets were dissociated into single cells using enzyme-free cell dissociation buffer (Invitrogen). Islets and islets cells from Q:1 all species were cultured identically (37° C. and 5% CO2) inCMRL Q:2 medium-1066 (Invitrogen), niacinamide (10 mM; Sigma), ITS (BD Biosciences), Zn2SO4 (15 μM, Sigma), GlutaMAX (2 mM; Invitrogen), Hepes (25 mM; Sigma), FBS (10%; Invitrogen), and penicillinstreptomycin (100 IU/mL-100 μg/mL; Invitrogen).
[Ca^2+]i; Imaging. [Ca^2+]i imaging was performed as previously described (8, 36). Dispersed islet cells were immersed in Hepes-buffered solution (125 mMNaCl, 5.9 mMKCl, 2.56 mMCaCl2, 1 mMMgCl2, 25 mMHepes, and 0.1% BSA, pH7.4). Glucose was added to give a final concentration of 3 mM. Islets or dispersed islet cells were incubated in Fura-2 AM (2 μM; 1 h) and placed in a closed small volume imaging chamber (Warner Instruments). Stimuli were applied with the bathing solution. Islets loaded with Fura-2 were excited alternatively at 340 and 380 nm with a monochromator light source (Cairn Research Optoscan Monochromator; Cairn Research Ltd). Images were acquired with a Hamamatsu camera (Hamamatsu) attached to a Zeiss Axiovert 200 microscope (Carl Zeiss). Changes in the 340/380 fluorescence emission ratio over time were analyzed in individual islets and dispersed cells using Kinetic Imaging AQM Advance software (Kinetic Imaging). Peak changes in the fluorescence ratio constituted the response amplitude. Beta cells were distinguished from other endocrine cells by their [Ca^2+]i, responses to high glucose concentrations, and alpha cells were identified by their [Ca^2+]i responses to kainate (glutamate receptor agonist) (8, 36).

The subject of the next assay is pig islets. The experiment in a line: Insulin secretion from perifused pig islets. Type of assay: cell-based. As to conditions: 1-1,000 μM.
From the text: as §1, §2

The target of the next assay is T1, P2X7 receptors (Homo sapiens, UniProt Q99572).
T1 sequence (Q99572 1-595): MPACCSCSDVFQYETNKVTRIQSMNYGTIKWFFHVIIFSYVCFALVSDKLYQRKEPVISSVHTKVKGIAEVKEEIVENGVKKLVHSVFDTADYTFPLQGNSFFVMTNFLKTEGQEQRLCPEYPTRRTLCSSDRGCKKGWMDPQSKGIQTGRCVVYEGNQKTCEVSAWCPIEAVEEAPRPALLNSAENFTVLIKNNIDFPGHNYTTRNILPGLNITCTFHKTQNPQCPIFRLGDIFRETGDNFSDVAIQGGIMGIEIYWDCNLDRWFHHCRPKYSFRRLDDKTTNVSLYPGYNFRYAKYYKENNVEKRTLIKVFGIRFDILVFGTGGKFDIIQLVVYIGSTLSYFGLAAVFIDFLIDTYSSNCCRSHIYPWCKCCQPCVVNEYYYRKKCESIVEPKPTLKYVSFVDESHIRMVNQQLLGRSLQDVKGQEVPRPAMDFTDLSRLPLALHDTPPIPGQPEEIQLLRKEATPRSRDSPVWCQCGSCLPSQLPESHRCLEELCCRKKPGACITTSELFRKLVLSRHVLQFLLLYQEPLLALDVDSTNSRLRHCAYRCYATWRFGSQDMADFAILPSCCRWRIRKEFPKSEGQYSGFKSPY
As to conditions: cited from earlier work.

Assay [3] concerns monkey islets. The experiment in a line: Insulin secretion from perifused monkey islets. Type of assay: cell-based, cynomolgus monkeys (Macacca fascicularis). As to conditions: increasing ATP concentrations.
From the text: as §1, §2

The test system of assay [4] is human islets. The experiment in a line: Glucose-induced insulin secretion (glucose raised from 3 mM to 11 mM) in perifused human islets. Type of assay: cell-based. As to conditions: glucose 3 mM to 11 mM, MRS2159 10 μM, Brilliant Blue G 1 μM, KN-62 1 μM, reactive blue 2 50 μM, MRS2179 10 μM, CGS15943 10 μM, adenosine 100 μM.
From the text: as §3
(§4) Insulin and Glucagon Secretion. Insulin and glucagon secretion were measured as previously described (8, 36). A high-capacity automated perifusion system was developed to dynamically measure hormone secretion from pancreatic islets. A low pulsatility peristaltic pump pushed Hepes-buffered solution (125 mM NaCl, 5.9 mM KCl, 2.56 mM CaCl2, 1 mM MgCl2, 25 mM Hepes, and 0.1% BSA, pH 7.4 at a perifusion rate of 100 μL/min) through a column containing 100 pancreatic islets immobilized in Bio-Gel P-4 Gel (BioRad). Except when otherwise stated, glucose concentration was adjusted to 3 mM for all experiments. Stimuli were applied with the perifusion buffer. The perifusate was collected in an automatic fraction collector designed for a 96-well plate format. The columns containing the islets and the perifusion solutions were kept at 37° C., and the perifusate in the collecting plate was kept at <4° C. Perifusates were collected every 1 min. Hormone release in the perifusate was determined with the human or mouse Endocrine LINCOplex Kit following manufacturer's instructions (Lincoresearch). Human islet preparations varied considerably in their quality. Thus, the magnitudes of the responses to different stimuli were compared with the same recording or using recordings from the same preparation.

The test system of assay [5] is human islets. The assay can be described thus: Dynamic insulin secretion from perifused human islets kept at constant glucose. In kind it is cell-based.
From the text: as §3, §4

The structures appear in SMILES notation. “Also recorded” adds a separate entry of the source.

As to `Nc1ncnc2c1ncn2[C@@H]1O[C@H](COP(=O)(O)OP(=O)(O)OP(=O)(O)O)[C@@H](O)[C@H]1O` [ATP], in the assay on human islets [1], the “glucagon response of human islets” value is “stimulated small increases in glucagon secretion”. In addition, the “insulin response of rat islets” value in the assay on rat islets was “No responses to ATP were observed; also recorded: neither ATP nor any of the other purinergic agonists tested stimulated insulin release; also recorded: only high concentrations of ATP (1 mM) induced small increases in insulin release”. For the same compound, the “glucagon response of mouse islets” value with mouse islets was “difficult to discern; also recorded: stimulated small increases in glucagon secretion”. For the same compound, the “glucagon response of monkey islets” value in the assay with monkey islets [2] is reported as “stimulated small increases in glucagon secretion”. In the assay with human β cells (human β cells identified by response to high glucose (11 or 16 mM), recorded at 3 mM glucose, BzATP 50 μM), the “[Ca2+]i response of β cells to the agonist” value is “elicited repeatable [Ca^2+]i responses; also recorded: elicited large insulin and [Ca^2+]i, responses”. The “[Ca2+]i responses to the agonist in the nominal absence of extracellular Ca2+” value in the assay with human β cells (human β cells, nominal 0 Ca2+ (+1 mM EGTA)) was “reduced [Ca^2+]i responses to ATP”. Moreover, the “insulin response of pig islets” value in the assay on pig islets was “No responses to ATP were observed; also recorded: neither ATP nor any of the other purinergic agonists tested stimulated insulin release”. For the same compound, the “ATP concentrations required for activation of homomeric P2X7 receptors” value on P2X7 receptors is more than 100. The EC50 at P2X7 receptors (read-out: EC50 for activation of P2X7 receptors) is 100 µM; in the assay with human islets [5] (3 mM and 11 mM glucose, read-out: high affinity component of the concentration response relationship for insulin release) it was approximately 0.5 µM. In addition, the “insulin response of monkey islets” value with monkey islets [3] is recorded as “responded to increasing concentrations of ATP like human islets”. Further, the “effect on glucose-induced insulin secretion” value in the assay with human islets [4] is given as “did not add to the insulin response; also recorded: not effective during abrupt increases in glucose concentration”. Further, in the assay on human islets [5] (3 mM glucose, ATP 100 μM (or concentration series), ATPγS 50 μM, BzATP 50 μM, α,β-methylene ATP 50 μM, ADP 100 μM, UTP 100 μM, adenosine 100 μM), the “insulin secretory response to the agonist at low glucose” value is “elicited insulin secretory responses; also recorded: stimulated increases in insulin release concentration dependently; also recorded: promoted strong responses; also recorded: elicited large insulin and [Ca^2+]i, responses”. Besides, the “response to high glucose (11 mM) compared with the increase elicited by ATP (1 mM)” value with human islets [5] (ATP 1 mM response as reference) is on record as 101%±30. The “insulin release on increasing extracellular ATP >1 mM” value with human islets [5] (ATP >1 mM) is given as “did not further raise insulin release”. Also, the “insulin responses to the agonist in islets kept at high glucose” value with human islets [5] (constant 11 mM glucose, ATP 100 μM, ATPγS 50 μM, BzATP 50 μM, UTP 100 μM, ADP 100 μM) is given as “stimulated increases in insulin release concentration dependently; also recorded: promoted strong responses”.
